We go through 9 compounds from EP0686628A2, “Prostaglandin F esters” (ONO PHARMACEUTICAL CO., LTD., priority 1994, dated 1995).

Series [1] relates to intraocular pressure. In words: Experiment 2: ocular hypotensive effect (Δ IOP) after instillation of a 0.02% solution, comparison with compared compounds. It is filed as in vivo, Male Japanese White rabbits. As to conditions: rabbit; for Ocular Hypotensive Effects on Intraocular Pressure (Δ IOP), Time after Administration 0 hr.: 0 hr. after administration (baseline); for Ocular Hypotensive Effects on Intraocular Pressure (Δ IOP), Time after Administration 1 hr.: 1 hr. after administration; for Ocular Hypotensive Effects on Intraocular Pressure (Δ IOP), Time after Administration 2 hr.: 2 hr. after administration; for Ocular Hypotensive Effects on Intraocular Pressure (Δ IOP), Time after Administration 4 hr.: 4 hr. after administration; for Ocular Hypotensive Effects on Intraocular Pressure (Δ IOP), Time after Administration 6 hr.: 6 hr. after administration; for initial elevation of the intraocular pressure: side effect. How it is done:
(§1) Male Japanese White rabbits weighing about 3.0 kg were lightly held and the intraocular pressure was measured by Applanation Pneumatonograph after corneal anesthesia with instillation of 0.4% oxybuprocaine hydrochloride solution.
(§2) A test compound was dissolved at 0.1% in vehicle which contains 2.5% glycerol and 2.0% polysorbate 80 in sterile purified water. The test solution at volume of […] was instilled into the left eye of each rabbit and the right eye remained untreated. As a control, the vehicle was instilled into the left eye in a control group. Δ IOP (mmHg), which is an index of ocular hypotensive effect, were calculated using below formula. Δ IOP = (IOPt - IOP0) - (IOPvt - IOPv0) [formula] IOPt : IOP at t hr. after instillation of a test solution IOPvt : IOP at t hr. after instillation of vehicle IOP0 : IOP just before instillation of a test solution IOPv0 : IOP just before instillation of vehicle
Further, the compounds of the present invention were compared with the compounds shown concretely in related arts hereinbefore described. The compounds have chemical structures quite similar to the compounds of the present invention were selected as compared compounds. 0.02% solutions of the compounds of the present invention were compared with the compared compounds, because the 0.02% solution is close to concentration used actually.
The compounds of the present invention and compared compounds were dissolved in vehicle at 0.02%, and Δ IOPs (mmHg) after instillation of these solution, which are the index of ocular hypotensive effects, were calculated in the same way as the experiment 1.
The graphs of the results shown in the Table 1 and Table 2 were Figure 1 and Figure 2.

Series [2] deals with intraocular pressure. The series can be described thus: Experiment 1: ocular hypotensive effect (Δ IOP) after instillation of a 0.1% solution into the rabbit eye. It is filed as in vivo, Male Japanese White rabbits. As to conditions: 0.1% solution instilled into left eye, vehicle-corrected, mean of three or four samples. Here is the method: as §1, §2
For example, the maximum reduction of IOP after instillation of the compounds shown as examples 1, 1(a), 1(b), 2, 3, 4 and 5 hereinafter were 6.0, 5.7, 5.4, 4.0, 4.7, 6.7 and 9.8 mmHg, respectively. And when the compound of the present invention was instilled, bulbar and palpebral conjunctival hyperemia could hardly be observed.

As for `CCCCC[C@H](O)CC[C@@H]1[C@@H](C/C=C\CCCC(=O)OC2CCCCC2)[C@@H](O)C[C@H]1O` [Compared compound 1, 13,14-dihydro-PGF2α cyclohexyl ester, reference compound], in the series with intraocular pressure [1], the “time after administration at which the ocular hypotensive effect appeared” value came out at 4 h; the “Ocular Hypotensive Effects on Intraocular Pressure (Δ IOP), Time after Administration 0 hr.” value was found to be 0 mmHg; the “Ocular Hypotensive Effects on Intraocular Pressure (Δ IOP), Time after Administration 1 hr.” value worked out at 11.3 mmHg; the “Ocular Hypotensive Effects on Intraocular Pressure (Δ IOP), Time after Administration 2 hr.” value stood at 2.3 mmHg. In the series on intraocular pressure [1], the “Ocular Hypotensive Effects on Intraocular Pressure (Δ IOP), Time after Administration 4 hr.” value is -5.6 mmHg; the “Ocular Hypotensive Effects on Intraocular Pressure (Δ IOP), Time after Administration 6 hr.” value is recorded as -9.3 mmHg; the “initial elevation of the intraocular pressure” value is listed as “showed extremely strong initial elevation”.

`CCCCC(C)(C)[C@H](O)/C=C/[C@@H]1[C@@H](C/C=C\CCCC(=O)O)[C@@H](O)C[C@H]1O` [Compared compound 2, 16,16-dimethyl-PGF2α, reference compound]: in the series with intraocular pressure [1], the “duration of the initial elevation of intraocular pressure” value was found to be 4 h; the “time after administration at which the ocular hypotensive effect appeared” value came out at 4 h; the “Ocular Hypotensive Effects on Intraocular Pressure (Δ IOP), Time after Administration 0 hr.” value is listed as 0 mmHg; the “Ocular Hypotensive Effects on Intraocular Pressure (Δ IOP), Time after Administration 1 hr.” value is recorded as 4.5 mmHg. Also, in the series on intraocular pressure [1], the “Ocular Hypotensive Effects on Intraocular Pressure (Δ IOP), Time after Administration 2 hr.” value worked out at 4.5 mmHg; the “Ocular Hypotensive Effects on Intraocular Pressure (Δ IOP), Time after Administration 4 hr.” value is reported as -2.0 mmHg; the “Ocular Hypotensive Effects on Intraocular Pressure (Δ IOP), Time after Administration 6 hr.” value is listed as -0.8 mmHg; the “initial elevation of the intraocular pressure” value was “showed initial elevation”.

Turning to `CCCCC[C@H](O)CC[C@@H]1[C@@H](C/C=C\CCCC(=O)Oc2ccccc2)[C@H](O)C[C@H]1O` [Example 1(a), 13,14-dihydro-PGF2β phenyl ester], the “maximum reduction of IOP after instillation” value (shortened to “maximum reduction of IOP”) in the series on intraocular pressure [2] was 5.7 mmHg.

Regarding `CCCCC[C@H](O)CC[C@@H]1[C@@H](C/C=C\CCCC(=O)OCc2ccccc2)[C@H](O)C[C@H]1O` [Example 1(b), 13,14-dihydro-PGF2β benzyl ester], the “maximum reduction of IOP” value with intraocular pressure [2] came out at 5.4 mmHg.

As for `CCCCC[C@H](O)CC[C@@H]1[C@@H](C/C=C\CCCC(=O)OC2CCCCC2)[C@H](O)C[C@H]1O` [Example 1, 13,14-dihydro-PGF2β cyclohexyl ester], the “maximum reduction of IOP” value in the series on intraocular pressure [2] is on record as 6.0 mmHg. Also, in the series on intraocular pressure [1], the “time after administration at which the ocular hypotensive effect appeared” value worked out at 1 h; the “time after administration for which the activity was maintained” value (“time … for which the activity was maintained” below) came to 6 h; the “Ocular Hypotensive Effects on Intraocular Pressure (Δ IOP), Time after Administration 0 hr.” value came out at 0 mmHg; the “Ocular Hypotensive Effects on Intraocular Pressure (Δ IOP), Time after Administration 1 hr.” value was -2.0 mmHg. In addition, in the series on intraocular pressure [1], the “Ocular Hypotensive Effects on Intraocular Pressure (Δ IOP), Time after Administration 2 hr.” value is listed as -2.3 mmHg; the “Ocular Hypotensive Effects on Intraocular Pressure (Δ IOP), Time after Administration 4 hr.” value is given as -6.6 mmHg; the “Ocular Hypotensive Effects on Intraocular Pressure (Δ IOP), Time after Administration 6 hr.” value was -1.8 mmHg; the “initial elevation of the intraocular pressure” value is “did not show initial elevation”. In the series with intraocular pressure [1] (4 hrs. after administration, printed as magnitude), the “activity (reduction of intraocular pressure) reached at 4 hrs. after administration” value is reported as 6.6 mmHg.

Consider `CCCCC(C)(C)[C@H](O)CC[C@@H]1[C@@H](C/C=C\CCCC(=O)OC(C)C)[C@@H](O)C[C@H]1O` [Example 2, 16,16-dimethyl-13,14-dihydro-PGF2α isopropyl ester], for which, in the series with intraocular pressure [2], the “maximum reduction of IOP” value is listed as 4.0 mmHg.

Regarding `CCCCC(C)(C)[C@H](O)/C=C/[C@@H]1[C@@H](C/C=C\CCCC(=O)OC(C)C)[C@@H](O)C[C@H]1O` [Example 3, 16,16-dimethyl-PGF2α isopropyl ester], the “maximum reduction of IOP” value in the series with intraocular pressure [2] amounted to 4.7 mmHg.

For the compound `CCCCC(C)(C)[C@H](O)/C=C/[C@@H]1[C@@H](C/C=C\CCCC(=O)OC(C)C)[C@H](O)C[C@H]1O` [Example 4, 16,16-dimethyl-PGF2β isopropyl ester], in the series on intraocular pressure [2], the “maximum reduction of IOP” value worked out at 6.7 mmHg. In the series with intraocular pressure [1], the “time after administration at which the ocular hypotensive effect appeared” value was 1 h; the “time … for which the activity was maintained” value is 6 h; the “Ocular Hypotensive Effects on Intraocular Pressure (Δ IOP), Time after Administration 0 hr.” value came out at 0 mmHg; the “Ocular Hypotensive Effects on Intraocular Pressure (Δ IOP), Time after Administration 1 hr.” value was -5.0 mmHg. Besides, in the series with intraocular pressure [1], the “Ocular Hypotensive Effects on Intraocular Pressure (Δ IOP), Time after Administration 2 hr.” value is on record as -5.0 mmHg; the “Ocular Hypotensive Effects on Intraocular Pressure (Δ IOP), Time after Administration 4 hr.” value is on record as -12.3 mmHg; the “Ocular Hypotensive Effects on Intraocular Pressure (Δ IOP), Time after Administration 6 hr.” value is given as -9.6 mmHg; the “initial elevation of the intraocular pressure” value is on record as “did not show initial elevation”.

Regarding `CCCCC(C)(C)[C@H](O)/C=C/[C@@H]1[C@@H](C/C=C\CCCC(=O)OCC)[C@H](O)C[C@H]1O` [Example 5, 16,16-dimethyl-PGF2β ethyl ester], the “maximum reduction of IOP” value in the series with intraocular pressure [2] was determined as 9.8 mmHg. Further, in the series with intraocular pressure [1], the “time after administration at which the ocular hypotensive effect appeared” value stood at 1 h; the “time … for which the activity was maintained” value is 6 h; the “Ocular Hypotensive Effects on Intraocular Pressure (Δ IOP), Time after Administration 0 hr.” value is 0 mmHg; the “Ocular Hypotensive Effects on Intraocular Pressure (Δ IOP), Time after Administration 1 hr.” value is reported as -2.0 mmHg. Moreover, in the series on intraocular pressure [1], the “Ocular Hypotensive Effects on Intraocular Pressure (Δ IOP), Time after Administration 2 hr.” value was -3.5 mmHg; the “Ocular Hypotensive Effects on Intraocular Pressure (Δ IOP), Time after Administration 4 hr.” value is -7.3 mmHg; the “Ocular Hypotensive Effects on Intraocular Pressure (Δ IOP), Time after Administration 6 hr.” value is -7.3 mmHg; the “initial elevation of the intraocular pressure” value is given as “did not show initial elevation”.
